Patent US5709864A, “Cosmetic or pharmaceutical and particularly dermatological, composition containing an extract of tephrosia, particularly Tephrosia purpurea” (priority 1993, dated 1998)

System: adenylate cyclase
Experiment: stimulation of adenylate cyclase activity in purified fibroblast (3T3 F442A) cell membranes, AMPc measured by radioimmunoassay
Format: biochemical, mouse
Conditions: at 0.05 g/l, 37° C., 3T3 F442A fibroblast membranes; basal activity without effector = 100%
Description: Cell membranes are initially obtained by culturing to confluence fibroblasts of the 3T3 F442A line commercially available from Flow Laboratories.
These fibroblast cell membranes which constitute an enzyme source, are incubated in a reaction medium in the presence of ATP at 37° C. for a predefined length of time.
The resulting AMPc is measured by radioimmunoassay. Taking the basal activity, i.e. activity without an effector, as being 100%, it is possible to determine the influence of an effector on the enzyme system.
Cell membranes are purified from the fibroblast in culture.
In this context, it should be observed that purification of cell membranes releases numerous enzymes into the assay medium. Two of these enzymes are undesirable in implementing the test. They comprise firstly Na^+, K^+ ATPase which transform ATP into adenosine diphosphate, and secondly phosphodiesterase 3',5'-AMPc which degrades cyclic AMP into AMP. Thus, in order to obtain reliable results from the test, it is essential to inhibit those two enzymes. The first is inhibited by means of ouabain, and the second by means of theophylline.
The reaction medium is thus constituted by:
50 μl of a 5 mM solution of […] (ATP) as substrate;
100 μl of a 20 mM solution of ouabain as an inhibitor of ATPase;
100 μl of a 20 mM solution of theophylline as an inhibitor of phosphodiesterase; and […]

C=C[C@@]1(C)CC(=O)[C@]2(O)[C@@]3(C)[C@@H](O)CCC(C)(C)[C@@H]3[C@H](O)[C@H](OC(C)=O)[C@@]2(C)O1 [forskoline]
% activity (adenylate cyclase; basal activity = 100): 225%
